Test results from patent US20060252774A1, “Regulation of type 5 adenylyl cyclase for treatment of neurodegenerative and cardiac diseases” (priority 2002, published 2006).
Values joined by “and” are separate entries in the source; they are usually repeats but may differ in a detail not shown here. Identical values can stand only once. “Also recorded” adds a separate entry of the source.

Columns and labels:
AC5 [1] = target: T1, AC5 (Canis lupus familiaris, UniProt P30803); assay: AC catalytic activity inhibition, AC5 isoform; format: biochemical; set-up: IC50 for AC5; other: 5 mM MgCl2 with Gsalpha/GTPgammaS/forskolin (50 micro M); other: in the presence of Gsalpha/GTPgammaS/forskolin; other: 10 micro M; details: for IC50: 5 mM MgCl2 with Gsalpha/GTPgammaS/forskolin (50 micro M)
Description: FIG. 11. […] The relative inhibitory activity versus control (% control activity) for various AC isoforms are shown. Data are means±S.D. of quadruplicate determinations.
Classic inhibitors of AC include adenosine analogs or P-site inhibitors, and MDL12330A, a non-nucleic acid inhibitor. However, not much was known about the isoform selectivity of these inhibitors. […] It was previously noted that AC2 was less sensitive to THFA than the other isoforms, giving a selectivity ratio of 1.8 when compared between AC6 and AC2.
Inventors will first determine the selectivity among the AC isoforms (FIG. 12). […] The IC50 values were calculated to be 0.32 micro M for AC5, 11.1 micro M for AC3, 65.3 micro M for AC2. The selectivity ratio of HI30435 was 207 between AC5 and AC2. […] The selectivity ratio was 18 between AC5 and AC2.

AC5 [2] = target: T1, AC5; assay: Adenyl cyclase stimulation by forskolin derivatives, High five cell membranes overexpressing type V; format: biochemical; set-up: made in house; host or cells: High Five insect cells (membranes); details: forskolin derivatives
Description: FIG. 15: Effect of forskolin, 6[3-(dimethylamino)propionyl]-14,15-dihydroforskolin, and NKH477 on adenyl cyclase [isforms.] isoforms: Forskolin derivatives dose response effect (A-C). High five cell membranes overexpressing type II (A), type III (B), and type V (C) adenyl cyclases. Adenyl cyclase activity was measured in the presence of 5 mM of MgCl2 with various concentrations of forskolin (closed circles), 6[3-(dimethylamino)propionyl]-14,15-dihydroforskolin (D, open triangles) or NKH477 (open circles). Means±SEM from 4 independent experiments are shown. *, p<0.01 differences from the value with forskolin.

[3] = system: conscious WT and AC5KO mice; assay: Physiological studies in conscious mice: HR (ECG) and arterial pressure; format: in vivo, mouse; details: for increase in HR: 1 μg/g i.v.; for change of HR: 0.75 mg/kg i.v.
Description: FIG. 19: Muscarinic regulation of cardiac function in vivo. A, Effects of atropine. […] B, Effect of ACh. […] C, Baroreflex regulation of HR.
In AC5KO and WT mice, four ECG wires (New England Electric Wire Corporation, Lisbon, N.H., USA) were placed subcutaneously, a silicone elastomer tubing (Cardiovascular Instrument Corp., Wakefield, Mass., USA) was inserted into the right external jugular vein and a 1.4 F micromanometer catheter (Millar Instruments, Inc., Houston, Tex., USA) was inserted into the lower abdominal aorta via the femoral artery as described previously with some modifications. The ECG wires, the silicone elastomer tubing and the micromanometer catheter were tunneled subcutaneously to the back, externalized, and secured in a plastic cap. On the day of the study, each mouse was placed in the mouse holder, the jugular venous catheter was accessed and connected to a microliter syringe (Hamilton Co., Reno, Nev., USA), the 1.4 F micromanometer catheter was connected to a recorder (Dash 4u; Astro-Med, Inc., West Warwick, R.I., USA) and the ECG wires were connected to an ECG amplifier (Gould Inc., Cleveland, Ohio, USA). All experiments were recorded with animals in the conscious state. After at least 6 hours recovery from the implantation of the catheter, when a stable HR was achieved, the baseline ECG and arterial pressure (AP) were recorded for 5 min. Ach (0.05 μg/g) was then administered intravenously (i.v.), and the ECG and AP recording were repeated. A recovery period of 15 min was allowed for the HR and AP to return to baseline before administering the next drug. Baseline HR slowing was examined in response to phenylephrine (0.2 μg/g i.v.).
Electrocardiogram (ECG) wires, a jugular vein catheter for drug infusion, and a femoral artery catheter for arterial pressure monitoring were implanted under anesthesia as described previously. […] Intravenous (i.v.) infusion of ISO (0.04 μg/kg/min i.v. for 5 min) was performed using an infusion pump. To examine the responses to a muscarinic agonist, acetylcholine (ACh) (25 mg/kg i.p.) was co-administered i.p. during the i.v. infusion of ISO (0.04 μg/kg/min). In addition, in conscious mice ACh (0.01 and 0.05 mg/kg), atropine (0.25, 1 and 2 mg/kg), or verapamil (0.75 mg/kg) were administered i.v., and the ECG was recorded. A recovery period of 15 min was allowed for the HR to return to baseline before administering the next drug. To examine HR responses to baroreflex hypertension, phenylephrine (0.2 mg/kg i.v.) was infused, and the ECG and arterial pressure were measured

AC3 = target: T2, AC3 (Rattus norvegicus, UniProt P21932); assay: AC catalytic activity inhibition, AC3 isoform; format: biochemical; details: in the presence of Gsalpha/GTPgammaS/forskolin
T2 sequence (P21932 1-1144): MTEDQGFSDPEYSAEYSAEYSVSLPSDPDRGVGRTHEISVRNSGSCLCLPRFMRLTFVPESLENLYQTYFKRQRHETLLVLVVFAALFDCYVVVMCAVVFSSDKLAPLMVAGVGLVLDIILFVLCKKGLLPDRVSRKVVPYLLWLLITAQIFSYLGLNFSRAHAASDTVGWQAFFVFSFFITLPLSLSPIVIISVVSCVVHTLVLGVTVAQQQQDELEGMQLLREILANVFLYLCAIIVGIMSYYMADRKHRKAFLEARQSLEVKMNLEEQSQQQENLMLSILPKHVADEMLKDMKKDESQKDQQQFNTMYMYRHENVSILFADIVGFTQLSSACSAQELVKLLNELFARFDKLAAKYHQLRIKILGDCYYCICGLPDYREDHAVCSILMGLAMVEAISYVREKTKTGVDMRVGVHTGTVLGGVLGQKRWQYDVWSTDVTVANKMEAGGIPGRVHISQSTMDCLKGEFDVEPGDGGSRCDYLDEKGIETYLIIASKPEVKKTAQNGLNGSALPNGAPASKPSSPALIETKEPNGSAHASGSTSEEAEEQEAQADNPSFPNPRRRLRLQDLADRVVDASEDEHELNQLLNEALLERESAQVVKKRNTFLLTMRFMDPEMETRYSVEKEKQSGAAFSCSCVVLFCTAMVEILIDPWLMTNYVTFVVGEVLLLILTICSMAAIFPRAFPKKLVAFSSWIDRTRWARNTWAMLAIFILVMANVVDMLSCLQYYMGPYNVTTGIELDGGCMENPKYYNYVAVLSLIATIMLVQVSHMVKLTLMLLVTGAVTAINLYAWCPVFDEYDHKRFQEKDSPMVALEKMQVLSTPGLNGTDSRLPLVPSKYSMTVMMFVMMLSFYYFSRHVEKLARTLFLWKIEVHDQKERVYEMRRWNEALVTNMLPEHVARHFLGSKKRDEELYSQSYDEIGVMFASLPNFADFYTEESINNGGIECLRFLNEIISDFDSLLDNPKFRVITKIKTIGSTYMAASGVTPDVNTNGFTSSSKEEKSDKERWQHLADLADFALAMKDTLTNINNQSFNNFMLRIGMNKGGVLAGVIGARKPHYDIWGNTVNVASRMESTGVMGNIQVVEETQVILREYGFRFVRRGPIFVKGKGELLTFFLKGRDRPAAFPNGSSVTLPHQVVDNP
Description: (§1) Classic inhibitors of AC include adenosine analogs or P-site inhibitors, and MDL12330A, a non-nucleic acid inhibitor.
(§2) Inventors will first determine the selectivity among the AC isoforms (FIG. 12).

AC2 = AC2 (Rattus norvegicus, UniProt P26769); assay: AC catalytic activity inhibition, AC2 isoform; format: biochemical; details: in the presence of Gsalpha/GTPgammaS/forskolin
Description: as §1, §2

cardiac AC = assay: AC assay in heart membrane preparations; format: biochemical, mouse; details: 10 μM
Description: FIG. 17: Adrenergic, muscarinic, and Ca^2+-mediated regulation of cardiac AC activity. A, AC activity in vitro. The steady state AC activity was determined as the maximal cAMP production over 15 min. Stimulation was performed at the level of the β-AR (ISO), G-protein (GTPγS) and AC catalytic unit with forskolin (Fsk). *P<0.01, n=5. B, Effects of carbachol on AC activity. AC was preactivated by ISO. AC activity was then determined in the absence and presence of carbachol. Carbachol at 10 μmol/L produced its maximal inhibitory effect. *P<0.01, n−5. C, To investigate the inhibition of AC activity by Ca^2+, we examined cAMP production in membranes from the hearts of WT and AC5KO at increasing Ca^2+ concentrations in the presence of ISO. ISO-stimulated AC activity was inhibited more in WT than in AC5KO. […].
Hearts were dissected from the mice and membrane preparations were prepared as described previously. Protein concentration was measured by the method of Bradford using bovine serum albumin as a standard. AC activity was measured as described previously. AC activity was linear within the incubation time up to 30 min. In order to harvest hearts for tissue cAMP content measurements, mice were allowed to acclimate to the surroundings in the laboratory for an hour before sacrifice. Freshly isolated hearts were briefly immersed in liquid nitrogen. The tissue was homogenized in ice-cold 6% percholic acid, and cAMP was extracted as described before. The concentration of cAMP was determined with an RIA kit (PerkinElmer Life Sciences, Boston, Mass., USA).
Hearts were dissected from the mice, and membrane preparations were prepared as described previously. Protein concentration was measured by the Bradford method using bovine serum albumin as a standard. AC activity was measured as described previously. AC activity was linear within the incubation time up to 30 min. For the study of Ca 2+ inhibition, the membranes were treated first with EGTA to extract the endogenous Ca 2+ prior to the assay. Free Ca 2+ concentrations were obtained with the use of 200 μmol/L EGTA buffers as described previously. The experiments with Ca 2+ inhibition were conducted in the presence of 100 μmol/L isoproterenol (ISO)+100 μmol/L GTP.

T1 sequence (P30803 whole entry, canonical isoform): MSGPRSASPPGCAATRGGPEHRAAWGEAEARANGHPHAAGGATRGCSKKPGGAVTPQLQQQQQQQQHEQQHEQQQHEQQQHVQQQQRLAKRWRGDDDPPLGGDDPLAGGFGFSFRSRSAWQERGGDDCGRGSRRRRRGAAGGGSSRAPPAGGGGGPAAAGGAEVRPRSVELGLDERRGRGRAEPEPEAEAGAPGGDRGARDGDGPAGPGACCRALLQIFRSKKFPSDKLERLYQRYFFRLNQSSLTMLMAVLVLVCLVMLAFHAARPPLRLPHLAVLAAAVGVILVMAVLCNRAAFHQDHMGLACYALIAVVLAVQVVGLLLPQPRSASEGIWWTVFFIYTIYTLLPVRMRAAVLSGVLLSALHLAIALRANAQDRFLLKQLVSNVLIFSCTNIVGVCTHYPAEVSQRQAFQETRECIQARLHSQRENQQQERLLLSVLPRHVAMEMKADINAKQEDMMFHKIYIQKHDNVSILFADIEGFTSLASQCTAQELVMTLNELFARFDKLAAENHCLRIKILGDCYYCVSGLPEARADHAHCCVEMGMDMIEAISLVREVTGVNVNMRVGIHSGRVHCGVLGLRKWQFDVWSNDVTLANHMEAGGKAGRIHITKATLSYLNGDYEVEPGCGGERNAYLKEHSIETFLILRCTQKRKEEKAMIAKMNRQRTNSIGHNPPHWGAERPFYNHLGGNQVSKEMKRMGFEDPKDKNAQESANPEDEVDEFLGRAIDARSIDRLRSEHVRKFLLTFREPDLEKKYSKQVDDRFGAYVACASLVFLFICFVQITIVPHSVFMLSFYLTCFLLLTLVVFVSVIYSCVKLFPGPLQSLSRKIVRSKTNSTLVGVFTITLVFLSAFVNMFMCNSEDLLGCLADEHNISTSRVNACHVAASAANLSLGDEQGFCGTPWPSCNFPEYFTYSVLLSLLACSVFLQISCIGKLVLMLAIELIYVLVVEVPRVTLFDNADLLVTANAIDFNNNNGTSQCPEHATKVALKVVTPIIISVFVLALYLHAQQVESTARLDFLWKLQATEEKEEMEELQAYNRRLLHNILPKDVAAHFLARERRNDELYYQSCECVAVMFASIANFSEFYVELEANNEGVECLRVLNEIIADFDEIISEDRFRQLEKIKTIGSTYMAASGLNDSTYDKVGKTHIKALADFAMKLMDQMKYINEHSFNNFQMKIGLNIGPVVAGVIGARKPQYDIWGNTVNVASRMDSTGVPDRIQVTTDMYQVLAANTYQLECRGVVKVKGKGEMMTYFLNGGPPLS

Question: `Nc1ncnc2c1ncn2[C@H]1C[C@H](OP(=O)(O)O)[C@@H](CO)O1` [2′-d-3′-AMP] was tested. Which IC50 (AC5 [1]) did it give?
Answer: 0.82 µM

Question: With `Nc1ncnc2c1ncn2[C@@H]1O[C@H](CO)[C@@H](OP(=O)(O)O)[C@H]1O` [3′-AMP] as the compound, how does the IC50 (AC5 [1]) read?
Answer: 14.6 µM

Question: Which “AC5 selectivity of stimulation (in words)” value (AC5 [2]) does the source give for `CC[C@@]1(C)CC(=O)[C@@]2(O)[C@]3(C)[C@H](O)CCC(C)(C)[C@H]3[C@@H](O)[C@@H](OC(C)=O)[C@]2(C)O1` [14,15-Dihydroforskolin] here?
Answer: small enhancement in AC5 selectivity

Question: With `CC(=O)OCC[N+](C)(C)C` [ACh, acetylcholine] as the compound, how does the “decrease of HR” value ([3]; conscious AC5KO, 0.01 μg/g i.v. (Example 2)) read?
Answer: 7.5%

Question: What about the “decrease of HR” value ([3]; conscious AC5KO, 0.01 mg/kg i.v. (Example 3)) of the same compound?
Answer: 1.3%

Question: And the “decrease of HR” value ([3]; conscious WT, 0.01 μg/g i.v. (Example 2))?
Answer: 22%

Question: And the “decrease of HR” value ([3]; conscious WT, 0.01 mg/kg i.v. (Example 3))?
Answer: 15%

Question: With `Nc1ncnc2c1ncn2C1CCCC1` [CPA, 9-(cyclopentyl)adenine] as the compound, how does the “inhibition of AC5 (in words)” value (AC5 [1]; in the presence of Gsalpha/GTPgammaS/forskolin) read?
Answer: potently inhibited AC5

Question: What about the “inhibition of AC3 (in words)” value (AC3) of the same compound?
Answer: only to a modest degree

Question: And the “inhibition of AC2 (in words)” value (AC2)?
Answer: only to a modest degree

Question: How did the “decrease of ISO-stimulated AC activity (in words)” value (cardiac AC; AC5KO heart membranes) turn out when `C[N+](C)(C)CCOC(N)=O` [Carbachol] was run?
Answer: did not inhibit; also recorded: hardly detectable

Question: What about the “decrease of ISO-stimulated AC activity” value (cardiac AC; WT heart membranes, ISO 100 μM + GTP 100 μM) of the same compound?
Answer: 21±3.4% and 21±3%

Question: With `CNC[C@H](O)c1cccc(O)c1` [Phenylephrine, phenylephrine] as the compound, how does the “systolic arterial pressure (in words)” value ([3]; WT and AC5KO, 0.2 μg/g (0.2 mg/kg) i.v.) read?
Answer: increased systolic arterial pressure significantly in both WT and AC5KO; also recorded: increased systolic arterial pressure similarly in both WT and AC5KO

Question: Which “increase in HR” value ([3]; conscious AC5KO) does the source give for `CN1[C@@H]2CC[C@H]1C[C@@H](OC(=O)C(CO)c1ccccc1)C2` (stereo partly drawn) [atropine] here?
Answer: 19±7.5 beats/min

Question: And the “increase in HR (in words)” value ([3]; conscious AC5KO, 1 mg/kg i.v. (Example 3))?
Answer: not observed in AC5KO

Question: And the “increase in HR” value ([3]; conscious WT)?
Answer: 102±22.2 beats/min

Question: `COc1ccc(CCN(C)CCCC(C#N)(c2ccc(OC)c(OC)c2)C(C)C)cc1OC` (stereo not drawn) [verapamil] was tested. Which “change of HR” value ([3]; conscious AC5KO) did it give?
Answer: −33±10 beats/min

Question: And the “change of HR” value ([3]; conscious WT)?
Answer: −36±10 beats/min
